In ChEMBL document CHEMBL4402605, “A Chemical Switch for Transforming a Purine Agonist for Toll-like Receptor 7 to a Clinically Relevant Antagonist” (J Med Chem, 2020):
Each block holds one compound with its values, some of them ahead of it. The source made the active and inactive calls. The rule behind the calls is not given here.

Assays:
[1] = target: T1, Toll-like receptor 8 (Homo sapiens) (UniProt Q9NR97); assay: Antagonist activity at human TLR8 expressed in HEK-Blue cells assessed as inhibition of CL075-induced NFkappaB activation by measuring reduction in SEAP level up to 50 uM after overnight incubation using qunati-blue reagent by SEAP reporter gene-based spectrophotometric method; type: cell-based
T1 sequence (whole entry): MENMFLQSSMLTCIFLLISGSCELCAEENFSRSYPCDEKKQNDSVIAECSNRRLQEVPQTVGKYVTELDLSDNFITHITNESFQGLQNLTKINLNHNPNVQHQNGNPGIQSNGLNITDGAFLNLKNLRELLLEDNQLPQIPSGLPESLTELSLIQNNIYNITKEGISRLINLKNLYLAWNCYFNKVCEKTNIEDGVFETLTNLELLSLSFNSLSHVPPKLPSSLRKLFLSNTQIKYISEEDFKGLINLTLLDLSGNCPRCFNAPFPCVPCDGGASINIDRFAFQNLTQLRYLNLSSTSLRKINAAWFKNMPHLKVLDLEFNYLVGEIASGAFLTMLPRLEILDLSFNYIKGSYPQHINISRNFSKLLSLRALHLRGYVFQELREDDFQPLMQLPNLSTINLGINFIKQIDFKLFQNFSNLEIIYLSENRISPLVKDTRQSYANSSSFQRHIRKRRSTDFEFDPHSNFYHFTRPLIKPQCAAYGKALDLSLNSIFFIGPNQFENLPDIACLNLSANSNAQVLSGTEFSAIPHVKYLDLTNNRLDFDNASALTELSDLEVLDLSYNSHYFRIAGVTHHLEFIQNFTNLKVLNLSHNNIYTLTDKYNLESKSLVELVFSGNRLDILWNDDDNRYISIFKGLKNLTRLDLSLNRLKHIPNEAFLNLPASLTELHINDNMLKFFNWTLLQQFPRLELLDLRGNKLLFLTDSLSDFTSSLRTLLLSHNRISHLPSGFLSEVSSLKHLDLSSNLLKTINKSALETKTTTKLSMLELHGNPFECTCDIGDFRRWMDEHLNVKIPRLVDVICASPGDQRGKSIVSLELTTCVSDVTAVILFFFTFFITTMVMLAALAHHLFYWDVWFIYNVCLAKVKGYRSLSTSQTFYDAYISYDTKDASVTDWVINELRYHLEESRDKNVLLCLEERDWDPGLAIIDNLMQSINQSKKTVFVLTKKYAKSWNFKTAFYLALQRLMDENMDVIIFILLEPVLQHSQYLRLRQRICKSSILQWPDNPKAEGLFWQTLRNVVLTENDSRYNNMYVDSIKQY

Toll-like receptor 7 [2] = target: T2, Toll-like receptor 7 (Homo sapiens, UniProt Q9NYK1)
T2 sequence (Q9NYK1 whole entry): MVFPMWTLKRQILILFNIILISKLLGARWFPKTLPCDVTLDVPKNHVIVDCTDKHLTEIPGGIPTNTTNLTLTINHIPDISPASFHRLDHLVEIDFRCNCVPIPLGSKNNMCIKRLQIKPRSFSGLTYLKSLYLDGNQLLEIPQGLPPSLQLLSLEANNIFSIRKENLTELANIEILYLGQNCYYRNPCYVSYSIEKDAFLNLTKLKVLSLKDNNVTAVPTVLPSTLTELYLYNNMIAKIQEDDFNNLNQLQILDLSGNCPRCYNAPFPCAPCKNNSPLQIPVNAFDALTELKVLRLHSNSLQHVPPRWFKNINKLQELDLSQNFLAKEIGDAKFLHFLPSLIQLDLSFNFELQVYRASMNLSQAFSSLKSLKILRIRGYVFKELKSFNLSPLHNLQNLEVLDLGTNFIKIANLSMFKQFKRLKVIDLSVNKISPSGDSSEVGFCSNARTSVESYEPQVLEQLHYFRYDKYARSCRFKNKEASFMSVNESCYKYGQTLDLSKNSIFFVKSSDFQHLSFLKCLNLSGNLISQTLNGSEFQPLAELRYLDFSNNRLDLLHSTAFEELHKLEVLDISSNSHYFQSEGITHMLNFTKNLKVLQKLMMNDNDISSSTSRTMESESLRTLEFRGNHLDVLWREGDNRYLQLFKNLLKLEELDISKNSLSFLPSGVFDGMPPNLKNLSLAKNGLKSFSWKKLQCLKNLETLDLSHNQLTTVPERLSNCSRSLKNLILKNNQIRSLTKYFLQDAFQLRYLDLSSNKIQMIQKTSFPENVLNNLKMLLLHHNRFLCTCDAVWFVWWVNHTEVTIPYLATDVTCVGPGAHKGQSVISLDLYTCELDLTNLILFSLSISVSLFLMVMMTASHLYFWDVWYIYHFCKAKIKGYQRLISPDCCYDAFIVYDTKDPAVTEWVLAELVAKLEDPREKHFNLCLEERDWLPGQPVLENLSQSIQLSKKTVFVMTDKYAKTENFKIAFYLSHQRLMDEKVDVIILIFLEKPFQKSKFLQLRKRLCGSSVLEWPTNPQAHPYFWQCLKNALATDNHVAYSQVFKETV
Description: Antagonist activity at human TLR7 expressed in HEK-Blue cells assessed as inhibition of CL264-induced NFkappaB activation by measuring reduction in SEAP level after overnight incubation using qunati-blue reagent by SEAP reporter gene-based spectrophotometric method

Toll-like receptor 7 [3] = target: T2, Toll-like receptor 7; assay: Agonist activity at human TLR7 expressed in HEK-Blue cells assessed as induction of NFkappaB activation by measuring increase in SEAP level after overnight incubation using qunati-blue reagent by SEAP reporter gene-based spectrophotometric method; type: cell-based

SMILES: CCN1CCN(CCCn2cnc3c(N4CCOCC4)ncnc32)CC1
inhibition [1]: inactive | IC50 (Toll-like receptor 7 [2]): 25 µM

SMILES: CCN1CCN(c2ncnc3c2ncn3CCCN2CCNCC2)CC1
inhibition [1]: inactive

SMILES: CCCCOc1nc(N)c2nc(O)n(CCCN3CCCCC3)c2n1
EC50 (Toll-like receptor 7 [3]): 2.6 µM

SMILES: CCN1CCN(c2ncnc3c2ncn3CCCN2CCOCC2)CC1
inhibition [1]: inactive | IC50 (Toll-like receptor 7 [2]): 40 µM

SMILES: CCN1CCN(c2ncnc3c2ncn3CCCN2CCCC2)CC1
inhibition [1]: inactive | IC50 (Toll-like receptor 7 [2]): 48.3 µM

SMILES: CCN(CCO)CCCC(C)Nc1ccnc2cc(Cl)ccc12 (configuration not stated) [HYDROXYCHLOROQUINE]
IC50 (Toll-like receptor 7 [2]): 8.6 µM

SMILES: CCN1CCN(CCCn2cnc3c(N4CCCCC4)ncnc32)CC1
inhibition [1]: inactive | IC50 (Toll-like receptor 7 [2]): 23.9 µM

More lines, in order of falling IC50 (Toll-like receptor 7 [2]), values ahead:

inhibition [1]: inactive | IC50 (Toll-like receptor 7 [2]): 43.1 µM
SMILES: CCN1CCN(CCCn2c(O)nc3c(N)ncnc32)CC1

inhibition [1]: inactive | IC50 (Toll-like receptor 7 [2]): 39.3 µM
SMILES: CCN1CCN(CCCn2cnc3c(N4CCNCC4)ncnc32)CC1

inhibition [1]: inactive | IC50 (Toll-like receptor 7 [2]): 15.8 µM
SMILES: CCN1CCN(c2ncnc3c2ncn3CCCN2CCCCC2)CC1
